Marks after values point to notes of the source that are not given here.

One data set concerns PC-3 cells. Put plainly: GSH levels and glutathione- and oxidative stress-related enzyme activities in PC-3 cells growing in vivo. More on the design: species or system human. The settings on record: PC-3, in vivo Pter, day 21. The protocol:
To measure enzyme activity, isolated tumor cells were homogenized in 0.1 M phosphate buffer (pH 7.2) at 4° C. GCL and GSS activities were measured as described previously (Obrador, E. et al. Hepatology 35, 74-81 (2002)). GPX (selenium dependent) activity was measured as described by Flohé and Gunzler (Flohe, L. & Gunzler, W. A. Methods Enzymol 105, 114-121 (1984)) using H2O2 as a substrate. GSR activity was determined as described by Akerboom and Sies (Akerboom, T. P. et al, Bull Eur Physiopathol Respir 17 Suppl, 221-227 (1981)). GGT activity was measured as described previously (Obrador, E. et al. Hepatology 35, 74-81 (2002)). GST activity was measured using an assay kit from Sigma. TXNRD activity, defined by the concentration of sodium-lipoate (disulfide) reduced to dehydrolipoate (dithiol) per milligram protein, was measured as previously described (Javvadi, P. et al. Cancer Res 70, 1941-1950 (2010)). SOD activity was measured as described by Flohé and Otting (Flohe, L. & Otting, F. Methods Enzymol 105, 93-104 (1984).) using 2 mM cyanide in the assay medium to distinguish mangano-type enzyme (SOD2) from the cuprozinc type (SOD1). CAT activity was analyzed as described by Aebi (Aebi, H. Methods Enzymol 105, 121-126 (1984)). NOX activity was measured by chemiluminescence following the methodology of Wind et al. (Wind, S. et al. Comparative pharmacology of chemically distinct NADPH oxidase inhibitors. Br J Pharmacol 161, 885-898 (2010)). Protein concentration was determined with the Pierce BCA protein assay (Fisher Scientific, Waltham, Mass.).
GSH, GSSG, NADP^+ and NADPH Determination.
GSH and GSSG were determined, following procedures previously described (Obrador, E. et al. PLoS One 9, e96466 (2014)), by LC/MS using the same equipment described above for pterostilbene determination. Cell processing was performed according to published methodology, where rapid N-ethylmaleimide derivatization was used to prevent GSH auto-oxidation (Asensi, M. et al. Anal Biochem 217, 323-328 (1994)). NADP^+ and NADPH were quantitated using an assay kit from Sigma (St. Louis, Mo.).
Isolation of Tumor Cells from Mouse Xenografts Using Enzymatic Digestion and a double Ficoll gradient.
To maximize the amount of isolated cells, avoiding the use of RFP-transfected cells and subsequent laser microdissection, an alternative methodology was set up. To maximize cell yield and viability the following combination of enzymes was used: collagenase III (200 U/ml; Sigma-Aldrich), DNase I (200 U/ml; Sigma-Aldrich) and trypsin (5 mg/ml; Invitrogen), and a non-enzymatic dissociation buffer (NEDB, Invitrogen). Briefly, mice were killed, and tumors were removed (avoiding skin, muscle and fat) into cold culture media and processed immediately. The tumors were minced into 1-3 mm fragments, which were then incubated with the dissociation solution (see above) for 30 min at 37° C. The tumor fragments were mixed up and down every 10 min using a […] micropipette with a tip cut to a diameter adapted to tissue fragment size. After each incubation period, the fragments were filtered through a […] nylon mesh cell strainer (BD Biosciences, San Diego, Calif., USA). The released cells were centrifuged at 1200 r.p.m. for 2 min and stored in cold CO2-independent medium with 30% FCS at […]. Fresh dissociation solution was added to the remaining tissue fragments for 30 min. Dissociation was stopped when no additional cells were released. The fragments were pushed through a sieve and all cells from all incubation periods were pooled and counted.
The dissociated cells were layered onto a double Ficoll gradient (Histopaque; Sigma-Aldrich; densities 1.077 and 1.119) and spun at 700 g for 30 min at room temperature. Cells removed from both interfaces were pooled and washed two times in CO2-independent medium and stored at 4° C. Debris and red blood cell elimination was improved with the dual-density gradient. […]

The subject of data set [1] is HT-29 colorectal carcinoma. Kind of data set: In vivo growth of HT-29 colorectal cancer xenografts. More on the design: species or system human. The settings on record: HT-29, day 21.
For a further data set, the system named is human A375 melanoma. The settings on record: 20 μM Pter, 24 h, in vitro; cited from earlier work.
The next data set deals with AsPC-1 pancreatic cancer. Kind of data set: In vivo growth of AsPC-1 pancreatic cancer xenografts. The settings on record: AsPC-1-RFP; 28 days after inoculation; Pter and/or CRC. More on the design: species or system human.
Data set [2] deals with MCF-7 breast adenocarcinoma. Put plainly: In vivo growth of MCF-7 breast cancer xenografts. More on the design: species or system human. The settings on record: MCF-7, day 28.
The next data set deals with ASPC-1 cells. Kind of data set: Effect of Pter on ASPC-1 cell growth or viability in vitro. In kind it is cell-based, human. The conditions noted are these: 15 μM Pter×60 min every 24 h. The procedure: FIG. 11. In vivo effect of Pter on human pancreatic cancer growth. […] For the doses of 20 and 40 mg Pter/kg only the point at the end of the treatment period is shown.
Human A2058, MeWo and MelJuso melanoma cells, and mouse AtT-20 pituitary corticotroph tumor cells were from the American Type Culture Collection (ATCC). Human HEMa-LP epidermal melanocytes were from Life Technologies (Grand Island, N.Y.). Human MDA-MB-231 (triple negative: ER−, PR−, HER2−) and MCF-7 (ER+, PR+, HER2−) breast adenocarcinoma, A549 lung adenocarcinoma (NSCLC), HepG2 hepatocellular carcinoma, LNCaP (AR+) and PC-3 (AR−) prostate adenocarcinoma, SK-OV-3 epithelial ovarian carcinoma, and HT-29 and Caco-2 colorectal carcinoma cells were from the American Type Culture Collection. Cells were grown in Dulbecco's modified Eagle's medium (DMEM) (Invitrogen, San Diego, Calif.), pH 7.4, supplemented with 10% heat-inactivated FCS (Biochrom KG, Berlin, Germany), 100 units/ml penicillin and 100 μg/ml streptomycin. Cells were plated, at a density of 20,000 cells/cm2, and cultured at 37° C. in a humidified atmosphere with 5% CO2. […] Cell numbers were determined using a Coulter Counter (Coulter Electronic Inc., Miami, Fla.). […] Cellular viability was assessed as previously reported (Mena, S. et al. Clin Cancer Res 13, 2658-2666 (2007)), by measuring trypan blue exclusion and leakage of lactate dehydrogenase activity.

Another data set deals with A2058 melanoma cells. Put plainly: NO production (NOx) in cultured A2058 cells isolated from treated mice. The settings on record: 24-h cultured A2058 cells isolated from Pter-treated mice. Format: cell-based, human.
For the next data set, the system named is A549 lung adenocarcinoma. Put plainly: In vivo growth of A549 lung cancer xenografts. More on the design: species or system human. The settings on record: A549, day 35.

For the molecule `COc1cc(/C=C/c2ccc(O)cc2)cc(OC)c1` [Pter, trans-3,5-dimethoxy-4′-hydroxystilbene], in the data set on PC-3 cells, the CAT is 0.3 ± 0.1 mU/10^6 cells, the GCL is 27 ± 9 mU/10^6 cells, the GSH stood at 2.4 ± 1.1 nmol/10^6 cells and the GSS is recorded as 2.7 ± 0.7 mU/10^6 cells. In the data set on PC-3 cells, the GSSG was determined as 0.05 ± 0.02 nmol/10^6 cells, the SOD1 is given as 0.05 ± 0.01 U/10^6 cells and the SOD2 is 0.01 ± 0.005 U/10^6 cells. For the same molecule, the Tumor vol. in data set [1] stood at 758 ± 214 mm^3. Besides, in the data set with human A375 melanoma, the “decrease in tumor cell viability” value is given as “approx. 30%”. Besides, the Tumor vol. with AsPC-1 pancreatic cancer was 523 ± 168* mm^3. Moreover, the Tumor vol. in data set [2] is recorded as 689 ± 153 mm^3. In addition, the “cell growth or viability in vitro” value in the data set on ASPC-1 cells is “did not affect”. In addition, the “NO production (NOx=NO2^− plus NO3^−)” value with A2058 melanoma cells came out at 0.15±0.04 nmol/10^6 cells. For the same molecule, the Tumor vol. in the data set on A549 lung adenocarcinoma is reported as 223 ± 88* mm^3.

These data come from US11179348B2, “Combination comprising pterostilbene for the treatment of cancer” (FUNDACIÓN UNIVERSIDAD CATÓLICA DE VALENCIA SAN VICENTE …, priority 2015, dated 2021).
